Columns and labels:
white guinea pigs = experiment: Phototoxicity test (UVA irradiation); conditions: for Evaluation (phototoxicity): 1%(w/v) solution, UVA 15 J/cm^2; for Phototoxic index: 50 μl of 1%(w/v) solution, UVA 320~380 nm 15 J/cm^2, observed 24, 48 and 72 hours
rabbits = experiment: Primary skin irritation test on animals (Draize P.I.I.); conditions: depilated back; for P.I.I. (Primary Irritation Index): 0.5 ml of 1% solution in 1,3-butylene glycol:ethanol 7:3, observed 24 or 72 hours later; for Evaluation (skin irritation): 1% solution, according to Draize's P.I.I.
Method: Test was performed using fifty-six (56) of healthy male rabbits whose backs were depilated. […] 0.5ml of the test sample solution was applied to the right site of 2.5 cm×2.5 cm region on each of the depilated back. Left site with no sample treated was compared as a control. 24 hours or 72 hours later, skin abnormality such as erythema, crust and edema was observed.
Based on the score of skin response, skin irritation was evaluated according to Draize's P.I.I.(Primary Irritation Index) and compared with retinoic acid.

elastase = experiment: Inhibition of elastase expression in human fibroblasts (ELISA kit); assay type: cell-based; conditions: 10^−4M, 24 hours, serum-free medium, relative to control group = 100
Summary of the method: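 Elastase in fibroblast culture fluid quantified by sandwich ELISA: 3 h capture, then chromophore-conjugated secondary antibody, then colour development, stopped with 1M sulfuric acid. Absorbance read at 405 nm. Expression given as % of the untreated control absorbance, with control set to 100.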

procollagen type I = experiment: Effect on collagen biosynthesis (procollagen type I ELISA) in human fibroblasts; assay type: cell-based; conditions: 10^−4M, 24 hours, serum-free medium, relative to control group = 100
Method: Human fibroblasts were seeded into 24-well plate at 1×10^5 cells per well and then cultured to 90% of growth.
For each supernatant, procollagen production was measured with procollagen type I ELISA kit.

RARα = target: T1, RARα (Homo sapiens, UniProt P10276); experiment: RARE-luciferase reporter assay in transfected CV-1 cells (affinity to retinoic acid receptor), RARα; assay type: cell-based; conditions: treated 24 hours at final concentration 10^−4M, control group 1000
T1 construct: expressed in transfected cells; host or cells: CV-1 cells (ATCC)
T1 sequence (P10276 1-462): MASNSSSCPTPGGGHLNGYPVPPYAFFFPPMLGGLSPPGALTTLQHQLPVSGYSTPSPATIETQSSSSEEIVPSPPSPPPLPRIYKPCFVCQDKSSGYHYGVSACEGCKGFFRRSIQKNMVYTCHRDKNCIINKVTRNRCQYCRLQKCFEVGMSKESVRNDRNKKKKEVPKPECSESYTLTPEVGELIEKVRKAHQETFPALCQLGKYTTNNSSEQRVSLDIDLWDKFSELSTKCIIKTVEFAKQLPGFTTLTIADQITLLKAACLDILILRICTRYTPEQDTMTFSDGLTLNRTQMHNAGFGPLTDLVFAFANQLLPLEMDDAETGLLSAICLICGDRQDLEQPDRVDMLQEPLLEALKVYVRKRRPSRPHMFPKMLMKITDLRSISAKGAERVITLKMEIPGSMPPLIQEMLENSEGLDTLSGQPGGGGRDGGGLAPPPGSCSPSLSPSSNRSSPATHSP
Summary of the method: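 CV-1 cells co-transfected with pECE-RARα or pECE-RARγ, RARE-tk-Luc reporter and β-galactosidase vector. Starting 24 h post-transfection, cells were treated for 24 h with compounds at a final 10^−4M; luciferase reporter read-out.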

RARγ = target: T2, RARγ (Homo sapiens, UniProt P13631); experiment: RARE-luciferase reporter assay in transfected CV-1 cells (affinity to retinoic acid receptor), RARγ; assay type: cell-based; conditions: treated 24 hours at final concentration 10^−4M, control group 5000
T2 construct: expressed in transfected cells; host or cells: CV-1 cells (ATCC)
T2 sequence (P13631 1-454): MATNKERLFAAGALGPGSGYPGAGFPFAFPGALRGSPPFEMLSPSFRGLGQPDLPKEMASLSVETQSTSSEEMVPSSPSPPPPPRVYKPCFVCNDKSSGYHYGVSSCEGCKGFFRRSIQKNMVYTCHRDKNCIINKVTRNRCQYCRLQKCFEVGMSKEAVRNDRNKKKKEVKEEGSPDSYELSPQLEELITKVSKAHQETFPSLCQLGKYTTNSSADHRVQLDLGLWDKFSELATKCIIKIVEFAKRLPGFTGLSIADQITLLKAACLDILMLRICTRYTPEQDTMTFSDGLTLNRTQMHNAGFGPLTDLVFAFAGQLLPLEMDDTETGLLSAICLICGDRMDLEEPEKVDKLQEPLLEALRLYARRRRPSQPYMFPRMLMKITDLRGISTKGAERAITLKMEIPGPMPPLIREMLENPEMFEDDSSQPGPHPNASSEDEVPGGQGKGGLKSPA
Summary of the method: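 CV-1 cells in DMEM with 2.5% FBS, 5,000 per well, transfected 24 h after seeding with 10 ng pECE-RARα, pECE-RARγ, 100 ng RARE-tk-Luc reporter and 100 ng β-galactosidase vector. Read-out is RARE-driven luciferase.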

collagenase = experiment: Inhibition of collagenase expression in human fibroblasts (ELISA kit); assay type: cell-based; conditions: 10^−4M, 24 hours, serum-free medium, relative to control group = 100
Summary of the method: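 Serum-starved human fibroblasts were treated for 24 h with 10^−4M test material in serum-free DMEM. Collagenase in the culture fluid was measured by sandwich ELISA read at 405 nm. Values are expressed as % of the untreated control (=100).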

Structure (SMILES)	Evaluation (phototoxicity) (white guinea pigs)	Phototoxic index (white guinea pigs)	P.I.I. (Primary Irritation Index) (rabbits)	Evaluation (skin irritation) (rabbits)	Elastase expression (%) (elastase)	Collagen biosynthesis (%) (procollagen type I)	Luciferase activity RARα (RARα)	Luciferase activity RARγ (RARγ)	Collagenase expression (%) (collagenase)
CN(C(=O)c1ccc(C(=O)NO)cc1)c1ccc(C(C)(C)C)cc1 [Example 52, [4-(N-hydroxycarbamoyl)phenyl]-N-methyl-N-[4-tert-butylphenyl]carboxamide]	No phototoxicity (lower value than 0.5, criterion value to be estimated as no phototoxicity)	0	0.412	No irritation	87%	127%	12400	12130	77%
CCc1ccc(C(=O)Nc2ccc(C(=O)NO)cc2)cc1 [Example 4, N-[4-(N-hydroxycarbamoyl)phenyl][4-ethylphenyl]carboxyamide]	No phototoxicity (lower value than 0.5, criterion value to be estimated as no phototoxicity)	0	0.350	No irritation	70%	119%	12000	12300	78%
CCCc1ccc(C(=O)N(C)c2ccc(C(=O)NO)cc2)cc1 [Example 16]	No phototoxicity (lower value than 0.5, criterion value to be estimated as no phototoxicity)	0	0.567	No irritation	77%	120%	12300	11200	80%
CCc1ccc(N(C)C(=O)c2ccc(C(=O)NO)cc2)cc1 [Example 48, [4-(N-hydroxycarbamoyl)phenyl]-N-methyl-N-[4-ethylphenyl]carboxyamide]	No phototoxicity (lower value than 0.5, criterion value to be estimated as no phototoxicity)	0	0.468	No irritation	87%	107%	15500	11200	87%
CCCCc1ccc(C(=O)Nc2ccc(CC(=O)NO)cc2)cc1 [Example 29, N-[4-(N-hydroxycarbamoylmethyl)phenyl][4-butylphenyl]carboxyamide]	No phototoxicity (lower value than 0.5, criterion value to be estimated as no phototoxicity)	0	0.234	No irritation	70%	132%	18900	10600	77%
CN(O)C(=O)Cc1ccc(NC(=O)C23CC4CC(CC(C4)C2)C3)cc1 [Example 33, 2-[4-(adamantlycarbonylamino)phenyl]-N-hydroxy-N-methylacetamide]	No phototoxicity (lower value than 0.5, criterion value to be estimated as no phototoxicity)	0	0.765	No irritation	82%	112%	13400	11000	70%
CCCCc1ccc(C(=O)N(C)c2ccc(C(=O)NO)cc2)cc1 [Example 18, N-[4-(N-hydroxycarbamoyl)phenyl]-N-methyl-[4-butylphenyl]carboxyamide]	No phototoxicity (lower value than 0.5, criterion value to be estimated as no phototoxicity)	0	0.321	No irritation	79%	130%	12900	11400	78%
O=C(NO)c1ccc(NC(=O)c2ccccc2)cc1 [Example 1, N-[4-(N-hydroxycarbamoyl)phenyl]benzamide]	No phototoxicity (lower value than 0.5, criterion value to be estimated as no phototoxicity)	0	0.375	No irritation	79%	105%	10000	12000	78%
CCCCc1ccc(N(C)C(=O)c2ccc(C(=O)NO)cc2)cc1 [Example 51, [4-(N-hydroxycarbamoyl)phenyl]-N-methyl-N-[4-butylphenyl]carboxyamide]	No phototoxicity (lower value than 0.5, criterion value to be estimated as no phototoxicity)	0	0.331	No irritation	77%	121%	13400	12210	76%
Cc1cccc(NC(=O)c2ccc(C(=O)NO)cc2)c1 [Example 36, [4-(N-hydroxycarbamoyl)phenyl]-N-[3-methylphenyl]carboxyamide]	No phototoxicity (lower value than 0.5, criterion value to be estimated as no phototoxicity)	0	0.456	No irritation	79%	121%	16700	11200	68%
Cc1cccc(C(=O)Nc2ccc(CC(=O)NO)cc2)c1 [Example 25, N-[4-(N-hydroxycarbamoylmethyl)phenyl][3-methylphenyl]carboxyamide]	No phototoxicity (lower value than 0.5, criterion value to be estimated as no phototoxicity)	0	0.423	No irritation	80%	120%	13200	12100	70%
CN(C(=O)c1ccccc1)c1ccc(C(=O)NO)cc1 [Example 12, N-[4-(N-hydroxycarbamoyl)phenyl]-N-methyl-benzamide]	No phototoxicity (lower value than 0.5, criterion value to be estimated as no phototoxicity)	0	0.410	No irritation	80%	122%	14500	11300	64%
